The values that follow come from patent publication US6402037B1, “Two-photon upconverting dyes and applications” (The Research Foundation of State University of New York, priority 1995, dated 2002).

Marks after values point to notes of the source that are not given here.

Data set [1] is described as follows: Optical characterization of the dye-doped composite glasses. Format: physicochemical. As for the experimental part:
Emission spectra were collected on a Shimadzu RF-5000U Spectrofluorophotometer (90° geometry) having a resolution of ±2 nm. For solution state measurements, a fluorometric quartz cuvette was used. For the composite glass, the emission was obtained from the surface of the glass (90° geometry) due to significant primary absorption. […]

A short description of data set [2]: Decomposition temperature (Td) by DSC thermogram. Type of data set: physicochemical. The conditions noted are these: DSC under nitrogen. As for the experimental part:
Decomposition temperature (“Td”) of each dye was measured by differential scanning calorimetry (“DSC”) thermogram using a Shimadzu DSC-50GPC under nitrogen. Elemental: analysis were performed by Atlantic Microlab, Inc., P.O. Box 2288, Norcross, Ga. 30019. Proton NMR spectra, TV/visible absorption spectra, and UV/visible emission spectra were recorded using a Varian Gemini-300 300 MHz spectrometer, a Shimazdu UV-3101 PC spectrophotometer, and a Shimazdu RF5000U spectrofluorophotometer, respectively: TV/visible absorption spectra of dyes prepared in these Examples in DMF, are provided in FIG. 3.

Data set [3] is described as follows: Optical characterization of the solution state (ethanol). The conditions noted are these: for fluorescence quantum yield: vs Rhodamine-6G.
Description: Absorption spectra were obtained using a Shimadzu UV-Vis 260 spectrophotometer with a resolution of ±1 nm. The spectra of solution state were obtained using quartz cuvettes (1 cm path length) throughout.
In addition, the quantum yield was measured from the fluorescence data.
Data set [4] in a line: TPA induced fluorescence and optical limiting in dye1-doped epoxy. Format: physicochemical. The source says:
Dye1, prepared in accordance with Example 6, was dispersed in an optical quality epoxy compound, EPO-TEX301 (Epoxy Technology, Inc., Billerica, Mass.) by dissolving the dye powder in the liquid Part A and Part B of the epoxy. Undoped and dye1-doped epoxies were cast by blade casting techniques. Film thickness was the same (0.3 mm) for both films, and the dopant concentration for the doped film was do=0.003 M.
A 2 cm-long, dye1-doped epoxy (EPO-TEX301) rod with a concentration of do=0.004M was used for TPA induced fluorescence and optical limiting measurements. An incident near infrared laser beam, having a wavelength of 1.06 μm, a pulsewidth of about 8 ns, a spectral width of about 1 cm^−1, and a repetition rate of 3 Hz, was provided by a Q-switched Nd-YAG pulsed laser source. The incident 1.06 μm radiation on the sample was a quasi-parallel laser beam of about 1 mm size with a nearly uniform transverse intensity distribution. An orange-red fluorescence emission was readily observed by the human eye in a dark room when the 1.06 μm incident beam intensity reached several MW/cm^2. […] Each data point was averaged over 10 laser pulses by using a gated integrator and boxcar averager. The solid line is the best fitted curve based on the square law that TPA processes follow.
where I(L) is the transmitted beam intensity, Io, is the incident beam intensity, L is the thickness of the sample, and β is the TPA coefficient of the sample medium. In the derivation of Equation (1), it is assumed that the linear attenuation of the medium can be neglected and the beam has a nearly uniform transverse intensity distribution within the medium. Using Equation (1), the value of β can be determined by measuring the transmitted intensity versus the incident intensity for a sample medium with a given L value. Furthermore, the TPA coefficient β (in units of cm/GW) of a given sample is determined by
Here, No is the molecular density of the dopant (in units of 1 cm^3), σ2 is the molecular TPA coefficient (or cross-section) of the same dopant (in units of cm^4/GW, do is the concentration of the dopant compound in the matrix (in units of M), and finally NA is Avogadro's number. For known β and do, the value of σ2 can be calculated from Equation (2). Another expression for molecular TPA coefficient (or cross-section), used in some reference papers, is
where hυ is the energy of an incident photon, and σ′2 has units of cm^4/photon/sec.
The measured transmitted intensity as a function of the incident intensity for the 2 cm-long, dye1-doped epoxy rod is shown in FIG. 9. Two groups of experimental data were obtained in two measurement cycles, and each data point was an average result over 10 laser pulses. In FIG. 9, the solid line is the theoretical curve predicted by Equation (1) using a best fit parameter of β=6 cm/GW, and the dashed line is similarly constructed by assuming that there is no TPA (β=0). Consequently, FIG. 9 evidences the TPA induced optical limiting behavior of dye1 at incident intensity levels of 50-250 MW/cm^2. Using a value of β=6 cm/GW and Equations (2) and (3), the values of molecular TPA cross-section of dye1 were estimated as σ2=2.5×10^−18 cm^4/GW and σ′2=4.7×10^−46 cm^4/photon/sec. These measured values of σ2 and σ2 for dye1 in EPO-TEX301 matrix are 2˜3 orders of magnitude greater than the corresponding values of Rhodamine dyes, as reported by Rapp et al., Chem. Phys. […] The damage threshold of the 2 cm-long, dye1-doped epoxy rod was measured as 250˜300 MW/cm^2.

Data set [5] can be described thus: Two-photon pumped cavity lasing of dye-doped matrices (1.06 μm pump). As for the experimental part:
Two-photon pumped cavity lasing experiments were conducted using a Q-switched Nd-YAG pulsed laser source having a wavelength of 1.06 μm, a pulsewidth of about 10 ns, a spectral width of about 1 cm^−1, an angular divergence of about 1.3 mrad, and a variable repetition rate of 1-10 Hz. A 1 cm-long quartz cuvette filled with dye1 solution in cyclopentanone (do≈8×10^−2 to 4×10^−2M) and a 7 mm-long, dye1 -doped poly(HEMA) rod (do,≈8×10^−3 M), prepared in accordance with Example 12, were used separately for two-photon pumped (“TPP”) lasing observation. The 1.06 μm-pump laser beam was focused on the center of the cuvette or sample rod, and a strong orange-red fluorescence emission was observed when the infrared pump intensity reached several MW/cm^2. Once the pump intensity further increased to a certain threshold level, simultaneous forward and backward highly directional superradiation could be observed from the solution or rod samples. To achieve cavity lasing, two parallel plane dielectrc-coating mirrors were employed to form a cavity. The pump beam, focused through a f-10 cm lens, was coupled into the cavity by normal incidence. The reflectivity was r=10% at 1.06 μm and r=99% at 600 nm for the front mirror (input coupler) and r=10% at 1.06 μm and r=50% at 600 nm for the rear mirror (output coupler). The total cavity length was 7˜8 cm, and the cuvette or sample rod was located at the center of the cavity. […] FIGS. 11A-11C show the emission spectra of the same 7 mm-long, dye1 -doped rod sample under the following different excitation conditions: 532 nm one-photon excited fluorescence emission (FIG. 11A), 1.06 μm two-photon excited fluorescence emission (FIG. 11B), and 1.06 μm pumped cavity lasing (FIG. 11C). Each spectrum was obtained using a grating -spectrograph in conjunction with an optical multi-channel analyzer (OMA-III) system. The difference between FIGS. 11A and 11B can be explained by a volume reabsorption effect of the emission. To obtain these two spectra, the excitation beam was incident on the rod end at a +45° angle, and the fluorescence was measured at a −45° angle. In the case of FIG. 11A, the emission was mainly from a shallow surface layer of the sample because of the very short penetration depth of the 532 nm pump radiation, and therefore, the reabsorption effect within the sample can be neglected. However, for the case of FIG. 11B, the incident infrared beam could pass through the whole rod length without obvious depletion, and, consequently, collected fluorescence signals of different spectral components were propagated within the sample for a considerable distance. […] Cavity lasing occurred at the central region of the two-photon absorption (“TPA”) induced fluorescence band, but the lasing bandwidth (˜8 nm) was much narrower than the ordinary one-photon excited fluorescence band width (˜60 nm) due to the lasing threshold requirement. In addition, a red-shift of the central lasing wavelength was observed as the pump energy increased. This shift may be caused by the local temperature change of the sample rod.
Compared to the smooth temporal profile of the 10 ns pump pulse, the lasing pulses manifested much shorter rise- and fall-times, i.e. ≦1.5 ns limited by the resolution of the detecting system. […]
The lasing output/pump input characteristic curve is given in FIG. 13 for the rod cavity lasing. […] However, at this pump level the measured one-pass two-photon absorption in the 7 mm-long rod was only about 23%. […]

Experiment in data set [6]: as above
The source holds these as a separate data set.

The mark [7] stands for this setting: EPO-TEX301 matrix, 1.06 μm, from β.
The mark [8] stands for this setting: cyclopentanone solution, 0.001 M.

For the compound `CCN(CCO)c1ccc(/C=C/c2cc[n+](CCO)cc2)cc1.[I-]` [ASPI, trans-4-[p-(N-ethyl-N-hydroxyethylamino)styryl]-N-hydroxyethylpyridinium iodide], the “Florescence FWHM” value in data set [1] (Composite Glass, single dye) is on record as 45 nm; in data set [3] (ethanol, same concentrations, excitation 509 nm), roughly 38 nm. In addition, the “Fluorescence Max.” value was found to be 586 nm in data set [1] (Composite Glass, single dye) and 600 nm in data set [3] (ethanol, ASPI 3.1×10^−3 M, Rhodamine-6G 6.5×10^−5 M, excitation 509 nm). Moreover, the “Florescence FWHM, ASPI emission” value in data set [1] (composite glass containing both dyes) was determined as 41 nm. The “Fluorescence Max., ASPI emission” value in data set [1] (composite glass containing both dyes, reconstructed peak) is recorded as 594 nm. In addition, the solubility in “Solubility” (ethanol, organic solvent or mixture) was 6.1 mM; in “Solubility” (in PMMA), “insolubility”; in the data set “Solubility” (in methyl methacrylate monomer), “insolubility”. For the same compound, the “Decomposition temperature (Td)” value in data set [2] amounted to 270 °C. Also, the fluorescence quantum yield in data set [3] (1.8×10^−6 M, excited at 482 nm) is recorded as 6×10^−3; in data set [3] (2.6×10^−6 M, excited at 509 nm), 7×10^−3. The “Quantum Yield” value in data set [3] (Solution State, Table 2) is 6.5 × 10^−3. The “Absorbance Max.” value in data set [3] (ethanol) worked out at 483 nm. Further, in data set [3] (ethanol), the “Stokes Shift” value is given as 118 nm. In data set [3] (ethanol, at 483 nm), this compound displayed a molar absorptivity of 68000 M⁻¹ cm⁻¹.

On to `CCN(CCO)c1ccc(/C=C/c2cc[n+](C)cc2)cc1.c1ccc([B-](c2ccccc2)(c2ccccc2)c2ccccc2)cc1` [dye1, trans-4-[p-(N-ethyl-N-hydroxyethylamino)styryl]-N-methylpyridinium tetraphenyborate], for which the “strong one-photon absorption range” value in data set [4] (0.3 mm epoxy film, 0.003 M) is recorded as 350˜560 nm. The “TPA coefficient β (best fit)” value in data set [4] (2 cm EPO-TEX301 rod, 0.004M, 1.06 μm) amounted to 6 cm/GW. In data set [4] (EPO-TEX301 matrix), the “TPA cross-section greater than values of Rhodamine dyes” value is 2˜3 orders of magnitude. In addition, in data set [4] (setting [7]), the “molecular TPA cross-section σ2” value is 2.5×10^−18 cm^4/GW and the “molecular TPA cross-section σ′2” value is recorded as 4.7×10^−46 cm^4/photon/sec. In data set [5] (poly(HEMA) 0.008M), this compound showed an absorption bandwidth of 80 nm, a linear absorption peak of 485 nm, an one-photon fluorescence bandwidth of 55 nm and an one-photon fluorescence peak of 577 nm. Also, the “molecular TPA cross-section σ2” value in data set [5] (poly(HEMA) rod, 1.06 μm, from nonlinear absorption data) was “≈ 1.2×10^−46 cm^4-sec”. In data set [6] (Vycor glass 0.0015M), this compound returned an one-photon fluorescence bandwidth of 60 nm and an one-photon fluorescence peak of 575 nm. In data set [6] (setting [8]), the absorption bandwidth was 100^a nm, the linear absorption peak is given as 480^a nm, the one-photon fluorescence bandwidth is 58^a nm and the one-photon fluorescence peak is on record as 590^a nm. Besides, in data set [6] (sol-gel glass 0.0015 M), the one-photon fluorescence bandwidth came to 55 nm and the one-photon fluorescence peak is 568 nm. Also, in data set [2], the “Decomposition temperature (Td)” value is 264 °C.

As for `CN(C)c1ccc(/C=C/c2cc[n+](C)cc2)cc1.c1ccc([B-](c2ccccc2)(c2ccccc2)c2ccccc2)cc1` [dye2, trans-4-[p-(N,N-dimethylamino)styryl]-N-methylpyridinium tetraphenyborate], the “Decomposition temperature (Td)” value in data set [2] came to 266 °C.
